Reference: publication PMC9848300, “Discovery of novel enasidenib analogues targeting inhibition of mutant isocitrate dehydrogenase 2 as antileukaemic agents” (Journal of Enzyme Inhibition and Medicinal Chemistry, 2023)

Columns and labels:
HL-60(TB) = assay: NCI 60 antitumor screening (single dose / five doses); format: cell-based; settings: Homo sapiens, HL-60, read-out: Growth inhibition percentage (GI %)
K-562 = assay: as above; format: cell-based; settings: Homo sapiens, K562, read-out: Growth inhibition percentage (GI %)
HOP-92 = assay: as above; format: cell-based; settings: Homo sapiens, HOP-92, read-out: Growth inhibition percentage (GI %)
MCF7 = assay: NCI 60 antitumor screening (single dose); format: cell-based; settings: Homo sapiens; MCF7 (breast cancer), single dose 10 μM; read-out: Growth inhibition percentage (GI %)
Summary of the method: (§1)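 NCI-60 protocol: single 10 μM dose against each cell line, run in triplicate. Percent growth (G%) of treated cells measured and growth inhibition reported as GI% = 100 − G%; panel mean also given.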

SF-268 = assay: NCI 60 antitumor screening (single dose); format: cell-based; settings: Homo sapiens; SF-268 (CNS cancer), single dose 10 μM; read-out: Growth inhibition percentage (GI %)
Summary of the method: as §1

COLO 205 = assay: NCI 60 antitumor screening (single dose / five doses); format: cell-based; settings: Homo sapiens, COLO 205, read-out: Growth inhibition percentage (GI %)
HCT-116 = assay: as above; format: cell-based; settings: Homo sapiens, HCT-116, read-out: Growth inhibition percentage (GI %)
HCT-15 = assay: as above; format: cell-based; settings: Homo sapiens, HCT-15, read-out: Growth inhibition percentage (GI %)
HT29 = assay: as above; format: cell-based, human; settings: Homo sapiens, HT-29, read-out: Growth inhibition percentage (GI %)
SF-539 = assay: as above; format: cell-based; settings: Homo sapiens, SF-539, read-out: Growth inhibition percentage (GI %)
SNB-75 = assay: as above; format: cell-based; settings: Homo sapiens, SNB-75, read-out: Growth inhibition percentage (GI %)
LOX IMVI = assay: as above; format: cell-based; settings: Homo sapiens, LOX IMVI, read-out: Growth inhibition percentage (GI %)
MDA-MB-435 = assay: as above; format: cell-based; settings: Homo sapiens, MDA-MB-435, read-out: Growth inhibition percentage (GI %)
SK-MEL-2 = assay: as above; format: cell-based; settings: Homo sapiens, SK-MEL-2, read-out: Growth inhibition percentage (GI %)
SK-MEL-28 = assay: as above; format: cell-based; settings: Homo sapiens, SK-MEL-28, read-out: Growth inhibition percentage (GI %)
UACC-257 = assay: as above; format: cell-based; settings: Homo sapiens, UACC-257, read-out: Growth inhibition percentage (GI %)
UACC-62 = assay: as above; format: cell-based; settings: Homo sapiens, UACC-62, read-out: Growth inhibition percentage (GI %)
IGROV1 = assay: as above; format: cell-based; settings: Homo sapiens, IGROV-1, read-out: Growth inhibition percentage (GI %)
786-0 = assay: as above; format: cell-based; settings: Homo sapiens, 786-0, read-out: Growth inhibition percentage (GI %)
A498 = assay: as above; format: cell-based; settings: Homo sapiens, A498, read-out: Growth inhibition percentage (GI %)
ACHN = assay: as above; format: cell-based; settings: Homo sapiens, ACHN, read-out: Growth inhibition percentage (GI %)
RXF 393 = assay: as above; format: cell-based; settings: Homo sapiens, RXF 393, read-out: Growth inhibition percentage (GI %)
SN 12C = assay: as above; format: cell-based; settings: Homo sapiens, SN12C, read-out: Growth inhibition percentage (GI %)
UO-31 = assay: as above; format: cell-based; settings: Homo sapiens, UO-31, read-out: Growth inhibition percentage (GI %)
DU-145 = assay: as above; format: cell-based; settings: Homo sapiens, DU-145, read-out: Growth inhibition percentage (GI %)
MDA-MB-231/ATCC = assay: as above; format: cell-based; settings: Homo sapiens, MDA-MB-231, read-out: Growth inhibition percentage (GI %)
BT-549 = assay: as above; format: cell-based; settings: Homo sapiens, BT-549, read-out: Growth inhibition percentage (GI %)
T-47D = assay: as above; format: cell-based; settings: Homo sapiens, T47D, read-out: Growth inhibition percentage (GI %)
[1] = tested on: 60 human subpanel cancer cell lines; assay: NCI 60 antitumor screening, mean over the panel (single dose); format: cell-based; settings: mean over 60 cancer cell lines, single dose 10 μM
Summary of the method: as §1

Structure (SMILES): O=[N+]([O-])c1cccc(/C=N/Nc2nc(N/N=C/c3cccc([N+](=O)[O-])c3)nc(N3CCCCC3)n2)c1 [compound 7f, 2,4-Bis[(E)-2-[(3-Nitrophenyl)methylidene]hydrazin-1-yl]-6-(piperidin-1-yl)-1,3,5-triazine]
- inhibition at 10 µM (HL-60(TB)): 42.8%
- inhibition at 10 µM (K-562): 67.6%
- inhibition at 10 µM (HOP-92): 20.9%
- inhibition at 10 µM (MCF7): 38.7%
- inhibition at 10 µM (SF-268): 24.3%
- inhibition at 10 µM (COLO 205): 24.1%
- inhibition at 10 µM (HCT-116): 47%
- inhibition at 10 µM (HCT-15): 53.5%
- inhibition at 10 µM (HT29): 36.3%
- inhibition at 10 µM (SF-539): 7.37%
- inhibition at 10 µM (SNB-75): -0.71%
- inhibition at 10 µM (LOX IMVI): 49.1%
- inhibition at 10 µM (MDA-MB-435): 26.1%
- inhibition at 10 µM (SK-MEL-2): 36%
- inhibition at 10 µM (SK-MEL-28): 31.4%
- inhibition at 10 µM (UACC-257): 4.25%
- inhibition at 10 µM (UACC-62): 43.7%
- inhibition at 10 µM (IGROV1): 51.3%
- inhibition at 10 µM (786-0): -6.21%
- inhibition at 10 µM (A498): 18.7%
- inhibition at 10 µM (ACHN): 37.8%
- inhibition at 10 µM (RXF 393): -3.98%
- inhibition at 10 µM (SN 12C): 31.9%
- inhibition at 10 µM (UO-31): 48.4%
- inhibition at 10 µM (DU-145): 29.8%
- inhibition at 10 µM (MDA-MB-231/ATCC): 0.87%
- inhibition at 10 µM (BT-549): 28.2%
- inhibition at 10 µM (T-47D): 47.5%
- Mean GI % [1]: 30.94%
